The values below come from ChEMBL document CHEMBL1201862, “PubChem BioAssay data set” (2004).

Some test systems named below: SNB-19; KM12; RPMI-8226; LOX IMVI; SF-268; SNB-75; OVCAR-3; SR; UACC-62; T47D; CCRF-CEM; SK-MEL-5; OVCAR-4; IGROV-1; MDA-MB-231; MCF7; OVCAR-8; HOP-92; NCI-H226; SK-OV-3.
Common to all, as to experiment: growth of human tumour cells (NCI), 48 h

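Method: 48-hour compound exposure of cells in 96-well plates, five concentrations, linear interpolation of endpoints. The concentration for 50% growth inhibition is given as GI50.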 Activity calls are given as the source filed them. Cut-off read from the data, not from the text of the source: active = GI50 up to about 1.1 µM and inactive = higher. Peptide text beside a SMILES is read from it. * marks the point of attachment. Boc = CC(C)(C)OC(=O)*

Regarding `O=C(/C=C/c1ccc(Cl)c(Cl)c1)Oc1ccc(/C=C2\CCCCC2=O)cc1`, the GI50 with SNB-19 is > 100 µM (inactive); with KM12, > 100 µM (inactive); in the experiment with RPMI-8226, 67.6 µM (inactive); in the experiment with LOX IMVI it was > 100 µM (inactive); with SF-268 it was 39 µM (inactive); in the experiment on SNB-75 it was > 100 µM (inactive). Besides, the GI50 in the experiment on OVCAR-3, in the experiment with SR, in the experiment with UACC-62, with T47D, in the experiment on CCRF-CEM and in the experiment on SK-MEL-5 was > 100 µM (inactive) in each case. The GI50 in the experiment on OVCAR-4, in the experiment on IGROV-1, with MDA-MB-231, in the experiment with MCF7, in the experiment on OVCAR-8 and in the experiment on HOP-92 was > 100 µM (inactive) throughout.
Consider `COc1ccc2c(c1)c1nn(CCN(C)C)c3ccc4c(=O)n(CCN(C)C)c(=O)n2c4c13`, for which the GI50 in the experiment with SNB-19 is 0.0224 µM (active); in the experiment with NCI-H226 it was 0.125 µM (active); in the experiment with KM12 it was < 0.0142 µM (active); in the experiment with RPMI-8226, < 0.01 µM (active); in the experiment with LOX IMVI, 0.0171 µM (active); with SF-268 it was < 0.01 µM (active). The GI50 in the experiment on SNB-75 was < 0.01 µM (active); with OVCAR-3, 0.018 µM (active); in the experiment with SK-OV-3, < 0.0157 µM (active); in the experiment with SR, < 0.01 µM (active); with UACC-62, 0.116 µM (active); in the experiment with T47D, 0.144 µM (active). Besides, the GI50 with CCRF-CEM was < 0.01 µM (active); with SK-MEL-5, 0.198 µM (active); with OVCAR-4, < 0.01 µM (active); with IGROV-1, < 0.01 µM (active); in the experiment with MDA-MB-231 it was 0.0211 µM (active); with MCF7 it was < 0.0158 µM (active). The GI50 in the experiment on OVCAR-8 was < 0.01 µM (active).
With `CC(C)(C)OC[C@H](O)CC#N`, the GI50 in the experiment on SNB-19, in the experiment on NCI-H226, with KM12, in the experiment on RPMI-8226, in the experiment with LOX IMVI and in the experiment on SF-268 was > 100 µM (inactive) throughout. In addition, the GI50 in the experiment with SNB-75, in the experiment on OVCAR-3, with SK-OV-3, with SR, with UACC-62 and in the experiment with T47D was > 100 µM (inactive) each time. Also, the GI50 in the experiment with CCRF-CEM, in the experiment on SK-MEL-5, in the experiment on OVCAR-4, in the experiment with MDA-MB-231, in the experiment with MCF7 and with OVCAR-8 was > 100 µM (inactive) in each case.
As for `COC(=O)C(Cc1c[nH]c2ccccc12)NC(=O)C(Cc1c[nH]c2ccccc12)NC(=O)C(Cc1c[nH]c2ccccc12)NC(=O)C(Cc1c[nH]c2ccccc12)NC(=O)C(Cc1c[nH]c2ccccc12)NC(=O)OC(C)(C)C` (configuration not stated) (Boc-WWWWW-OMe; configuration not given here), the GI50 in the experiment with SNB-19 was 39 µM (inactive); in the experiment with NCI-H226, 42 µM (inactive); with RPMI-8226, 26.2 µM (inactive); in the experiment with LOX IMVI it was 67.6 µM (inactive); with SF-268, 71 µM (inactive); with SNB-75, 36.5 µM (inactive). Further, the GI50 was > 100 µM (inactive) in the experiment on OVCAR-3; 32.4 µM (inactive) in the experiment with SR; 26.5 µM (inactive) in the experiment on UACC-62; 10.7 µM (inactive) in the experiment with T47D; 74 µM (inactive) with CCRF-CEM; 17.5 µM (inactive) in the experiment with SK-MEL-5. Besides, the GI50 in the experiment on OVCAR-4 was > 100 µM (inactive); with IGROV-1, 30 µM (inactive); with MDA-MB-231, > 100 µM (inactive); in the experiment on MCF7 it was 84.1 µM (inactive); in the experiment on OVCAR-8, > 100 µM (inactive).
